Test results taken from paper PMC10477861, “Efficient Mining of Anticancer Peptides from Gut Metagenome” (Advanced Science, 2023).
Where no end group is shown, it is not given here.

Columns and labels:
Hela = experiment: MTT primary screening of anticancer activity, Hela; type: cell-based, Human; details: 25 µM pACP, 24 h, maintenance medium 1% FBS, ratio of viability to vehicle (PBS), at least three technical repetitions
Outline: (§1)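 Each candidate peptide is tested […] at 25 µM for 24 h on subconfluent (60%) cells kept in low-serum (1% FBS) medium. Viability is quantified with an MTT kit.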

CT26 subcutaneous tumors = experiment: CT26 subcutaneous xenograft tumor model in nude mice; type: in vivo; parameters: Mean Diff, tumor volume growth, Control vs. peptide (Dunnett's multiple comparisons test): unit not given here; details: for tumor size compared to control-treated animals: CT26 subcutaneous tumors, athymic nude mice, two intratumoral injections (day 0, day 2), monitored six days, p <0.05; for tumor size compared to control-treated animals / signs of acute toxicity in tumor-bearing mice / survival of treated mice: 0.80 mg kg-1 pACP2283 or 0.51 mg kg-1 pACP1780; for Mean Diff, tumor volume growth, Control vs. peptide (Dunnett's multiple comparisons test): CT26 tumors in nude mice, intratumoral pACP1780 0.51 mg kg-1 or pACP2283 0.80 mg kg-1 on day 0 and day 2, six mice per group; for signs of acute toxicity in tumor-bearing mice / survival of treated mice: athymic nude mice with CT26 tumors, two intratumoral injections
Experimental: To evaluate the translational relevance of our methodology, we selected these two pACPs for in vivo studies. […] Subcutaneous tumors were established using CT26 cells in athymic nude mice, and the animals were randomized to receive two intratumoral injections of 0.80 mg kg^−1 pACP2283, 0.51 mg kg^−1 pACP1780, or PBS control on day 0 and day 2. The dosage of pACPs was calculated as five times the CC50 of each compound in CT26 cells. Tumor size was monitored daily for six days (Figure 3c).
Six‐week‐old female nude mice were obtained from Beijing HFK Bioscience Co., Ltd. and were acclimated to the laboratory environment for one‐week prior to the commencement of the experiments. All experimental procedures were conducted in a manner that minimized discomfort, distress, and pain to the animals. Mice were group‐housed, with a maximum of five animals per cage, under a light‐dark cycle of 12 h, with a constant temperature of 21–22°C and humidity of 55 ± 5%. They were provided with standard rodent chow and water ad libitum. The Ethics Committee of the Institute of Microbiology, Chinese Academy of Sciences approved all procedures (SQIMCAS2021005).
Murine colorectal carcinoma cell line CT26 was cultured in RPMI‐1640 medium supplemented with 10% fetal bovine serum and 1% penicillin/streptomycin at 37°C and 5% CO2. Tumor formation was induced by injecting was 5×106 ml^−1 CT26 cells into the right forelimb of each mouse. All mice were housed in the same environment with sufficient food and water. Throughout the study, the survival status and tumor progression of the mice on a daily basis were observed. The mice were randomly divided into three groups and received different treatments. CT26 cells were injected on […] for all groups. On Day 0, ACPs (pACP1780: 0.51 mg kg^−1 and pACP2283: 0.80 mg kg^−1) were intratumorally injected, while the Control group received an intratumoral injection of the same volume of PBS. On Day 2, the ACPs were intratumorally injected again, and the Control group received an injection of the same volume of PBS.

HT29 = experiment: MTT primary screening of anticancer activity, HT29; type: cell-based, Human; details: 25 µM pACP, 24 h, maintenance medium 1% FBS, ratio of viability to vehicle (PBS), at least three technical repetitions
Outline: as §1

CT26 cells = experiment: Propidium iodide (PI) assay of CT26 membrane damage; type: cell-based, Murine; details: pACP1780 6.23 µM, pACP2283 10.56 µM, 1, 2, 6, 12 h, PI 10 µg ml-1 45 min, ex/em 535/617 nm
Experimental: To explore the anticancer effects of pACP2283 and pACP1780 at the cellular level, we co‐cultured confluent CT26 cells with these pACPs.
Cell viability was assessed using propidium iodide (PI, ZS822‐1) according to the manufacturer's instructions. Briefly, CT26 cells were seeded in a 96‐well plate at a density of 1×10^4 cells per well. After 24 h, pACP1780 and pACP2283 were added to the wells at concentrations of 6.23 and 10.56 µM, respectively. The plate was then incubated for 1, 2, 6, and 12 h. Subsequently, the cells were cultured in medium containing 10 µg ml^−1 PI for 45 min. The fluorescence intensity was measured using a CytationTM 5 instrument (Bio Tek) with excitation/emission wavelengths of 535/617 nm.

MDA-MB-468 = experiment: MTT primary screening of anticancer activity, MDA-MB-468; type: cell-based; details: 25 µM pACP, 24 h, maintenance medium 1% FBS, ratio of viability to vehicle (PBS), at least three technical repetitions
Outline: as §1

MDA-MB-231 = experiment: MTT primary screening of anticancer activity, MDA-MB-231; type: cell-based; details: 25 µM pACP, 24 h, maintenance medium 1% FBS, ratio of viability to vehicle (PBS), at least three technical repetitions
Outline: as §1

MDA-MB-436 = experiment: MTT primary screening of anticancer activity, MDA-MB-436; type: cell-based; details: 25 µM pACP, 24 h, maintenance medium 1% FBS, ratio of viability to vehicle (PBS), at least three technical repetitions
Outline: as §1

SK-BR-3 = experiment: MTT primary screening of anticancer activity, SK-BR-3; type: cell-based; details: 25 µM pACP, 24 h, maintenance medium 1% FBS, ratio of viability to vehicle (PBS), at least three technical repetitions
Outline: as §1

Sequence | Survival rate of cancer cells in primary screening (Hela) | tumor size compared to control-treated animals (CT26 subcutaneous tumors) | Mean Diff, tumor volume growth, Control vs. peptide (Dunnett's multiple comparisons test) (CT26 subcutaneous tumors; Day 0) | Mean Diff, tumor volume growth, Control vs. peptide (Dunnett's multiple comparisons test) (CT26 subcutaneous tumors; Day 1) | Mean Diff, tumor volume growth, Control vs. peptide (Dunnett's multiple comparisons test) (CT26 subcutaneous tumors; Day 2) | Mean Diff, tumor volume growth, Control vs. peptide (Dunnett's multiple comparisons test) (CT26 subcutaneous tumors; Day 3) | Mean Diff, tumor volume growth, Control vs. peptide (Dunnett's multiple comparisons test) (CT26 subcutaneous tumors; Day 4) | Mean Diff, tumor volume growth, Control vs. peptide (Dunnett's multiple comparisons test) (CT26 subcutaneous tumors; Day 5) | signs of acute toxicity in tumor-bearing mice (CT26 subcutaneous tumors) | survival of treated mice (CT26 subcutaneous tumors) | Survival rate of cancer cells in primary screening (HT29) | PI fluorescence intensity (damaged cell membranes) (CT26 cells) | Survival rate of cancer cells in primary screening (MDA-MB-468) | Survival rate of cancer cells in primary screening (MDA-MB-231) | Survival rate of cancer cells in primary screening (MDA-MB-436) | Survival rate of cancer cells in primary screening (SK-BR-3)
RRFAWIGKLQSRKVRNNIRQYRTKIVRQMRRQIFRQMKQKAE [pACP1780] | 0.00724 | significantly reduced tumor size | 0 | 0.4906 | 0.7153 | 0.6812 | 1.652 | 2.41 | no overt signs of acute toxicity were observed | all mice survived | 0.33 | significantly increased fluorescence intensity | 0.19 | 0.09 | 0.00535 | 0.03
WWRRAERSVRRFFGTPIGPFPEIFGRRKAHKKKIIAKFDSVNG [pACP2283] | 0.00225 | significantly reduced tumor size | 0 | 0.7285 | 1.385 | 1.698 | 2.95 | 3.362 | no overt signs of acute toxicity were observed | all mice survived | 0.51 | significantly increased fluorescence intensity | 0.09 | 0.06 | 0.00645 | 0.0341
